Reference: US20240002846A1, “COMPOSITIONS AND METHODS FOR THE DIAGNOSIS AND TREATMENT OF ITCH” (Duke University, priority 2020, published 2024)
Values joined by “and” are separate entries in the source; they are usually repeats but may differ in a detail not shown here. Equal values may be shown once. “Also recorded” adds a separate entry of the source.

Key:
pERK expression [1] = assay: pERK Western blot in cultured mouse keratinocytes; assay type: cell-based; conditions: inhibitor 10 μM
Method: Primary mouse keratinocytes were cultured following previous protocol (Chen et al. J. Biol. Chem. 2016, 291, 10252-10262). The epidermis from the back skin of newborn WT or keratinocyte-Trpv4 cKO mice was separated from the dermis by floating the skin on 0.25% trypsin (Gibco, Gaithersburg, MD) for 14-18 h at 4° C. Basal keratinocytes were separated from the cornified sheets by filtration through a […] cell strainer. Keratinocytes were plated on collagen I-coated dishes or glass coverslips and grown in EME media (Gibco, Gaithersburg, MD) containing 8% chelex (Bio-rad, Hercules, CA)-treated FBS with the final Ca^2+ adjusted to 0.05 mM, bovine pituitary extract (50 μg/mL), epidermal growth factor (5 ng/mL), and lx antibiotics/antimycotics (Gibco, Gaithersburg, MD) in a humidified incubator with 5% CO2 at 37° C. for 5-7 days until use. To knockdown Trpv4 in isolated keratinocytes from newborn keratinocyte-Trpv4 cKO mice, cells were treated with 4-OH tamoxifen at 500 nM for 72 h.
Western Blot. Routine procedures were followed (Chen et al. J. Biol. Chem. 2016, 291, 10252-10262, Chen et al. Pain 2014, 155, 2662-2672). […] Immunoblot band intensity was quantitated using the software Image J and ERK served as a control for pERK expression.

pERK expression [2] = assay: pERK Western blot in cultured human keratinocytes; assay type: cell-based; conditions: inhibitor 10 μM
Method: Primary human keratinocytes were cultured as previously described (Chen et al. J. Biol. Chem. 2016, 291, 10252-10262). In brief, surgically discarded foreskin samples, obtained from Duke Children's Hospital in accordance to institutionally approved IRB protocol, were incubated with Dispase (Gibco, Gaithersburg, MD, 4 U/mL) for 12-16 h at 4° C. followed by 0.05% trypsin (Gibco, Gaithersburg, MD) for 10-20 min at 37° C. Cells were maintained in keratinocyte serum-free media (Invitrogen, Waltham, MA) with 5% CO2 at 37° C. and used at passage 2-3.
Western Blot. Routine procedures were followed (Chen et al. J. Biol. Chem. 2016, 291, 10252-10262, Chen et al. Pain 2014, 155, 2662-2672). Briefly, cultured keratinocytes and dissected dorsal neck skin (0.5×0.5 cm, the area that received the treatment) were protein-extracted in radioimmunoprecipitation assay (RIPA, Sigma, St. Louis, MO) buffer and electroblotted to polyvinylidene fluoride (PVDF) membranes after gel separation of proteins in a 4-15% polyacrylamide gel (Bio-Rad, Hercules, CA). […] Immunoblot band intensity was quantitated using the software Image J and ERK served as a control for pERK expression.

rTRPV4 = rTRPV4 (Rattus norvegicus, UniProt Q9ERZ8); assay: Inside-out patch-clamp, HEK cells transfected with rTRPV4; assay type: biochemical; design: expressed in transfected cells; host or cells: HEK293; conditions: 5 μM LPC 18:1, WT-rTRPV4, inside-out patches
Chain of rTRPV4 (Q9ERZ8 whole entry): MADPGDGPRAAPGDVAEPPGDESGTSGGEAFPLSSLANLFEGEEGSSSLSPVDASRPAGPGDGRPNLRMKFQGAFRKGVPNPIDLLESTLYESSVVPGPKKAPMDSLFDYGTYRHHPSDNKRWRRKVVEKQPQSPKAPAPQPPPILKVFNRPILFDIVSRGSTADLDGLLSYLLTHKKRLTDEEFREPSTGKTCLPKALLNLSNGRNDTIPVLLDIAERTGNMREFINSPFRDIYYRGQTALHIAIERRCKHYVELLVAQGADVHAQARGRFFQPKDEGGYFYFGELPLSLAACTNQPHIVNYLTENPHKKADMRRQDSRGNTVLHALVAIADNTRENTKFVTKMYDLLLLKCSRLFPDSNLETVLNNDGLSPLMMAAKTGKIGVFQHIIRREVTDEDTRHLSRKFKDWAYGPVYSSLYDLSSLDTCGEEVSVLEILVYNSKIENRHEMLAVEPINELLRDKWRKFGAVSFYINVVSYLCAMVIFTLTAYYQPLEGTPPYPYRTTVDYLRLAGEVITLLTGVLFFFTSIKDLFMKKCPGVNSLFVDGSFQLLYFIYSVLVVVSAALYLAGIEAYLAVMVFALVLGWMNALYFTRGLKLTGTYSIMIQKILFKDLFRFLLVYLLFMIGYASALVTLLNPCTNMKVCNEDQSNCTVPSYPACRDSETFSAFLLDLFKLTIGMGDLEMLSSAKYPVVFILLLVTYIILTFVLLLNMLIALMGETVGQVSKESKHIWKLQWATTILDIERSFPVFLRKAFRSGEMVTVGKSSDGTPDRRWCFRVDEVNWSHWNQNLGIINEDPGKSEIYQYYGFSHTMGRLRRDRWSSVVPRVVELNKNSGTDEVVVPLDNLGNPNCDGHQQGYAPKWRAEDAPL
Method: (§1) Cell culture and transfection. HEK293 cells (ATCC® CRL-1573) were cultured on poly-D-lysine coated coverslips in 24-well plate containing DMEM media with high-Glucose (Gibco, Gaithersburg, MD) supplemented with 10% fetal bovine serum (FBS, HyClone Laboratories, Logan, UT) and 100 U/mL of penicillin/streptomycin (Gibco, Gaithersburg, MD). Cell cultures were maintained with 5% of CO2 in a humidified incubator at 37° C. HEK cells were transfected with rat or human wild type or mutant TRPV4 channels with EGFP or YFP coupled to their C-termini (1.5 μg of plasmid for excised patch clamp and Ca^2+ imaging and 200 ng for single-channel experiments). […]
(§2) Electrophysiology. Currents were recorded using the inside-out configuration of the patch-clamp technique (Hamill et al. Pflugers Arch. 1981, 391, 85-100). […] Mean current values in response to GSK1016790A or LPC 18:1 were measured after channel activation had reached the steady-state (˜3 min). […] Currents were low-pass filtered at 2 kHz and sampled at 10 kHz with an EPC 10 amplifier (HEKA Elektronik) and were plotted and analyzed with Igor Pro (Wavemetrics Inc.).

hTRPV4-R746C = molecular target: T1, hTRPV4-R746C (Homo sapiens, UniProt Q9HBA0, R746C); assay: Inside-out patch-clamp, hTRPV4-R746C; assay type: biochemical; conditions: 5 μM LPC 18:1
T1 construct: expressed in transfected cells; host or cells: HEK293
T1 sequence (Q9HBA0 whole entry R746C): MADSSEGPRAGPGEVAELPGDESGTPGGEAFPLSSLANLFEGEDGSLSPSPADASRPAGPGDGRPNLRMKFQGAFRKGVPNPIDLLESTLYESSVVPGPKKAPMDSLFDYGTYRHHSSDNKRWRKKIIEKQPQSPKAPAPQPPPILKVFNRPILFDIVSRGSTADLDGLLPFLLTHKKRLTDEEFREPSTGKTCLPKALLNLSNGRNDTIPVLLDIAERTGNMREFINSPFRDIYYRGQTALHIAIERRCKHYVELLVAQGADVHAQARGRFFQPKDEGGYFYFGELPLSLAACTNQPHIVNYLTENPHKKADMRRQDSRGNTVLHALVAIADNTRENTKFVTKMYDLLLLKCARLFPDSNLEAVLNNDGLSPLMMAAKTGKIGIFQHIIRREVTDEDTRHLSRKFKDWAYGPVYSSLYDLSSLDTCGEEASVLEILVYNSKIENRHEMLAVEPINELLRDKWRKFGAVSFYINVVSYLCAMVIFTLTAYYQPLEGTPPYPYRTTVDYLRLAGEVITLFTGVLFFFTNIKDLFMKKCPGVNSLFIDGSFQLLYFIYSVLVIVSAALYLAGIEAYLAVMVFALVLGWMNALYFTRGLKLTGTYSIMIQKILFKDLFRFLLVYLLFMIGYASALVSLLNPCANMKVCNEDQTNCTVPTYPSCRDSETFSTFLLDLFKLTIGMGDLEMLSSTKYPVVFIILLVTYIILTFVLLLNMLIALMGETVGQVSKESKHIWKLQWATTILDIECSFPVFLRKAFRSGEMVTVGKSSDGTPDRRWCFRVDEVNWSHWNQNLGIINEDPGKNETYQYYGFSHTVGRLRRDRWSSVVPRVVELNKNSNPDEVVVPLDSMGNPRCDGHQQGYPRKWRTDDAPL
Method: as §1, §2

| Compound | effect on LPC-increased pERK expression (pERK expression [1]) | effect on LPC-increased pERK expression (pERK expression [2]) | average activation of currents, normalized to 1 μM GSK101 (rTRPV4) | average activation of currents, normalized to 1 μM GSK101 (rTRPV4; listed as LPC (18:1)) | average activation of currents, normalized to 1 μM GSK101 (hTRPV4-R746C) |
| --- | --- | --- | --- | --- | --- |
| Cc1c(C(=O)Nc2cccc(C(F)(F)F)c2)cc(-c2ccccc2)n1CCCN1CCOCC1 [HC067047] | eliminated the increase; also recorded: abolished | eliminated the increase; also recorded: abolished | – | – | – |
| LPC 18:1 | – | – | 54±4% | 54% and ~50% | 11±4% |
